Laboratory results published in patent publication US12171229B2, “Heteroaryl-triazole and heteroaryl-tetrazole compounds as pesticides” (BAYER AKTIENGESELLSCHAFT, priority 2018, dated 2024).

Tests used:
Type in all cases: in vivo
[1] = tested on: Diabrotica balteata; experiment: Diabrotica balteata spray test; details: Diabrotica balteata, in Triticum aestivum, 168 h, after 7 days, larvae on wheat seeds, read-out: efficacy (seedlings grown up); for pest or weed control at 160 µg/disc, 500 g/ha: 160 μg/well (=500 g/ha); for pest or weed control at 80 µg/disc, 250 g/ha: 80 μg/well (=250 g/ha)
Protocol: Diabrotica balteata—Spray Test [table] To produce a suitable preparation of active compound, 1 part by weight of active compound is mixed with the stated amount of solvent, and the concentrate is diluted with water, containing an emulsifier concentration of 1000 ppm, to the desired concentration. Further test concentrations are prepared by dilution with emulsifier containing water. Soaked wheat seeds (Triticum aestivum) are placed in a multiple well plate filled with agar and some water and are incubated for 1 day to germinate (5 seeds per well). The germinated wheat seeds are sprayed with a test solution containing the desired concentration of the active ingredient. Afterwards each unit is infected with 10-20 larvae of the banded cucumber beetle (Diabrotica balteata). After 7 days efficacy in % is determined. 100% means all the seedlings have grown up like in the untreated, uninfected control; 0% means none of the seedlings have grown.

[2] = tested on: Myzus persicae; experiment: Myzus persicae oral test; details: 120 h, 4 ppm, after 5 days
Protocol: Solvent: 100 parts by weight acetone
To produce a suitable preparation of active compound, 1 part by weight of active compound is mixed with the stated amount of solvent, and the concentrate is diluted with water to the desired concentration.
50 μl compound solution is filled in microtiter plates and 150 μl IPL41 insect medium (33%+15% sugar) is added to obtain a total volume of 200 μl per well. Afterwards the plates are sealed with parafilm through which a mixed population of the green peach aphid (Myzus persicae) can suck on the compound preparation.
(§1) After 5 days mortality in % is determined. 100% means all aphids have been killed and 0% means none of the aphids have been killed.

[3] = tested on: Myzus persicae; experiment: Myzus persicae spray test; details: foliar, 120 h, after 5 days, Chinese cabbage leaf disks
Protocol: Myzus persicae—Spray Test
(§2) To produce a suitable preparation of active compound, 1 part by weight of active compound is mixed with the stated amount of solvents and is diluted with water, containing an emulsifier concentration of 1000 ppm, to the desired concentration. Further test concentrations are prepared by dilution with emulsifier containing water.
Chinese cabbage (Brassica pekinensis) leaf disks infected with all instars of the green peach aphid (Myzus persicae), are sprayed with a preparation of the active ingredient of the desired concentration.
as §1

[4] = tested on: Nezara viridula; experiment: Nezara viridula spray test; details: 96 h, after 4 days, larvae on barley plants
Protocol: Nezara viridula—Spray Test
as §2, with “solvent,” for “solvents”, “and the concentrate” for “and”
Barley plants (Hordeum vulgare) infested with larvae of the southern green stink bug (Nezara viridula) are sprayed with a test solution containing the desired concentration of the active ingredient.
After 4 days mortality in % is determined. 100% means all the stink bugs have been killed: 0% means none of the stink bugs have been killed.

[5] = tested on: Spodoptera frugiperda; experiment: Spodoptera frugiperda spray test; details: 168 h, after 7 days, larvae on maize leaf sections
Protocol: Spodoptera frugiperda—Spray Test
as §2
Maize (Zea mays) leaf sections are sprayed with a preparation of the active ingredient of the desired concentration. Once dry, the leaf sections are infested with fall armyworm larvae (Spodoptera frugiperda).
After 7 days mortality in % is determined. 100% means all caterpillars have been killed and 0% means none of the caterpillars have been killed.

[6] = tested on: Ctenocephalides felis; experiment: Ctenocephalides felis oral test; details: 48 h, 100 ppm in cattle blood, after 2 days, adult unfed cat fleas
Protocol: Ctenocephalides Felis—Oral Test
Solvent: dimethyl sulfoxide
To produce a suitable preparation of active compound, 10 mg of active compound are dissolved in 0.5 ml solvent, and the concentrate is diluted with cattle blood to the desired concentration.
Approximately 20 adult unfed cat fleas (Ctenocephalides felis) are placed in flea chambers. The blood chamber, sealed with parafilm on the bottom, are filled with cattle blood supplied with compound solution and placed on the gauze covered top of the flea chamber, so that the fleas are able to suck the blood. The blood chamber is heated to 37° C. whereas the flea chamber is kept at room temperature.
After 2 days mortality in % is determined. 100% means all the fleas have been killed; 0% means none of the fleas have been killed.

[7] = tested on: Ctenocephalides felis; experiment: Ctenocephalides felis in-vitro contact test, adult cat flea; details: 5 μg/cm^2 (=500 g/ha), after 48 hours, adult cat fleas, read-out: efficacy (fleas dead or moribund)
Protocol: Ctenocephalides Felis—In-Vitro Contact Tests Adult Cat Flea 9 mg compound is solved in 1 ml acetone and diluted with acetone to the desired concentration. 250 μl of the test solution is filled in 25 ml glass test tubes and homogeneously distributed on the inner walls by rotation and tilting on a shaking device (2 h at 30 rpm). With a compound concentration of 900 ppm, an inner surface of 44.7 cm^2 and a homogeneous distribution, a dose of 5 μg/cm^2 is achieved. After the solvent has evaporated, each test tube is filled with 5-10 adult cat fleas (Ctenocephalides felis), closed with a perforated lid and incubated in a lying position at room temperature and relative humidity. After 48 hours efficacy is determined. The fleas are patted on the ground of the tubes and are incubated on a heating plate at 45-50° C. for at most 5 minutes. Immotile or uncoordinated moving fleas, which are not able to escape the heat by climbing upwards, are marked as dead or moribund. […] An efficacy of 100% means all fleas are dead or moribund; 0% means no fleas are dead or moribund.

[8] = tested on: Boophilus microplus; experiment: Boophilus microplus injection test; details: Rhipicephalus microplus, 168 h; 20 μg/animal injected into the abdomen; adult engorged female ticks; egg deposition after 7 days; read-out: efficacy (infertile eggs)
Protocol: Boophilus Microplus—Injection Test Solvent: dimethyl sulfoxide To produce a suitable preparation of active compound, 10 mg of active compound are dissolved in 0.5 ml solvent, and the concentrate is diluted with solvent to the desired concentration. Five adult engorged female ticks (Boophilus microplus) are injected with 1 μl compound solution into the abdomen. The ticks are transferred into replica plates and incubated in a climate chamber. After 7 days egg deposition of fertile eggs is monitored. Eggs where fertility is not visible are stored in a climate chamber till hatching after about 42 days. An efficacy of 100% means all eggs are infertile; 0% means all eggs are fertile.

[9] = tested on: Aedes aegypti strain MONHEIM; experiment: Aedes aegypti test (AEDSAE surface treatment & contact assay); details: surface concentration 20 mg/m^2, exposure 30 minutes, 24 hours after contact, read-out: efficacy (mortality)
Protocol: Aedes Aegypti Test (AEDSAE Surface Treatment & Contact Assay)
(§3) Solvent: Aceton+2000 ppm rapeseed oil methyl ester (RME)
(§4) In order to produce a sufficient, active ingredient containing solution it is necessary to solve the test compound in the solvent-mix (acetone at 2 mg/ml/RME 2000 ppm). This solution is pipetted onto a glazed tile and after evaporation of the acetone, adult mosquitoes of the species Aedes aegypti strain MONHEIM are placed onto the dried surface. The exposure time is 30 minutes.
(§5) Mortality in percent (%) is determined 24 hours after contact of the insects to the treated surface. 100% mortality means that all tested insects are dead, whereas 0% means that no insect died.

[10] = tested on: Culex quinquefasciatus strain P00; experiment: Culex quinquefasciatus test (CULXFA surface treatment & contact assay); details: surface concentration 4 mg/m^2, exposure 30 minutes, 24 hours after contact, read-out: efficacy (mortality)
Protocol: Culex Quinquefasciatus Test (CULXFA Surface Treatment & Contact Assay)
as §3
as §4, with “Culex quinquefasciatus” for “Aedes aegypti”, “P00” for “MONHEIM”
as §5

SMILES | pest or weed control at 160 µg/disc, 500 g/ha [1] | mortality at 4 ppm [2] | mortality at 500 g/ha [3] | mortality at 500 g/ha [4] | mortality at 100 g/ha [5] | mortality at 500 g/ha [5] | pest or weed control at 80 µg/disc, 250 g/ha [1] | mortality at 100 g/ha [4] | mortality at 100 ppm [6] | mortality at 100 g/ha [3] | pest or weed control at 5 µg/cm2 [7] | pest or weed control at 0.02 mg [8] | mortality at 20 mg/m2 [9] | mortality at 4 mg/m2 [10]
C[C@H](NC(=O)c1cc(Cl)cc(C(F)(F)F)c1)c1ncnn1-c1ccc(NC(=O)C2(Cl)CC2)cn1 [Example I-104] | 100% | 90% | 90% | 90% | 100% | 100% |  |  |  |  |  |  |  | 
C[C@H](NC(=O)c1cc(Cl)cc(OC(F)(F)F)c1)c1ncnn1-c1ccc(NC(=O)C2CC2)cn1 [Example I-105] | 100% | 100% | 90% | 100% | 100% | 100% | 100% | 100% |  |  |  |  |  | 
C[C@H](NC(=O)c1cc(Cl)cc(C(F)(F)F)c1)c1ncnn1-c1ccc(NC(=S)C2CC2)cn1 [Example I-098] | 100% | 100% | 90% | 90% | 100% | 100% | 100% |  | 100% | 90% |  |  |  | 
C[C@H](NC(=O)c1cc(Cl)cc(C(F)(F)F)c1)c1ncnn1-c1nccs1 [Example I-082, 3-chloro-N-{(1S)-1-[1-(1,3-thiazol-2-yl)-1H-1,2,4-triazol-5-yl]ethyl}-5-(trifluoromethyl)benzamide] | 100% |  |  | 100% | 100% | 100% | 100% |  |  |  | 90% |  |  | 
C[C@H](NC(=O)c1cc(F)c(F)c(F)c1)c1ncnn1-c1ccc(C#N)cn1 [Example I-020] | 100% |  |  |  |  | 100% | 100% |  | 100% |  |  | 100% | 90 to 100% | 90 to 100%
Cc1nc([C@H](C)NC(=O)c2cc(Cl)cc(OC(F)(F)F)c2)n(-c2ccc(C#N)cn2)n1 [Example I-116] | 100% | 100% | 100% | 100% | 100% | 100% |  | 90% |  | 100% |  |  |  | 
C[C@H](NC(=O)c1cc(Cl)cc(C(F)(F)F)c1)c1ncnn1-c1ccc(NS(C)(=O)=O)cn1 [Example I-054] | 100% | 100% | 90% | 100% |  |  | 100% | 90% |  | 90% |  |  |  | 
Cc1nc([C@H](C)NC(=O)c2cc(Cl)cc(Cl)c2)n(-c2ccc(C#N)cn2)n1 [Example I-115] | 100% | 100% | 100% | 100% | 100% | 100% |  |  |  | 90% |  |  |  | 
C[C@H](NC(=O)c1cc(Cl)cc(OC(F)F)c1)c1ncnn1-c1ccc(C#N)cn1 [Example I-107] | 100% | 100% | 90% | 100% | 100% | 100% |  | 100% |  | 90% |  |  |  | 
CC(=O)Nc1ccc(-n2ncnc2[C@H](C)NC(=O)c2cc(Cl)cc(OC(F)(F)F)c2)nc1 [Example I-106] | 100% | 100% | 90% | 100% | 100% | 100% | 100% |  |  |  |  |  |  | 
C[C@H](NC(=O)c1cc(Cl)cc(C(F)(F)F)c1)c1ncnn1-c1ccc(NC(=O)C2(C#N)CC2)cn1 [Example I-076] | 100% | 100% | 100% |  | 100% | 100% | 100% |  | 90% |  |  | 100% |  | 
CC[C@H](NC(=O)c1cc(Cl)cc(OC(F)(F)F)c1)c1ncnn1-c1ccc([N+](=O)[O-])cn1 [Example I-071] |  |  |  |  |  |  |  |  |  |  | 80% |  |  | 
C[C@H](NC(=O)c1cc(F)c(Cl)c(F)c1)c1ncnn1-c1ccc(C#N)cn1 [Example I-021] |  | 100% |  |  |  | 100% |  |  | 100% | 100% |  |  |  | 
